Earlier results, collected in patent US20090186834A1, “DIPHENYLHETEROCYCLE CHOLESTEROL ABSORPTION INHIBITORS” (MICROBIA, INC., priority 2005, published 2009).

What was measured:
[1] = test system: absorption of taurocholic acid; settings: in vivo
[2] = test system: fat-SOluble vitamin absorption; settings: in humans

O=C1[C@H](CC[C@H](O)c2ccc(F)cc2)[C@@H](c2ccc(O)cc2)N1c1ccc(F)cc1 [ezetimibe, (3R,4S)-1-(4-fluorophenyl)-3-[(3S)-3-(4-fluorophenyl)-3-hydroxypropyl]-4-(4-hydroxyphenyl)azetidin-2-one]
inhibition of the absorption of taurocholic acid [1]: does not inhibit | effect on fat-SOluble vitamin absorption [2]: does not appear to affect
